In ChEMBL document CHEMBL1148126, “Triterpenoid constituents of Raulinoa echinata” (J Nat Prod, 2002):
Converted amounts (≈) assume the structure as drawn.

What was measured:
[1] = system: Trypanosoma cruzi; experiment: Antitrypanosomal activity against Trypanosoma cruzi Y trypomastigotes; format: functional, organism-based
[2] = Toxicity in Artemia salina; format: organism-based; settings: in vivo, read-out: LD50 (the source's name)

Row | Compound | IC50 [1] [µg/mL] | LC50 [2] [µg/mL]
1 | CNc1ccccc1C(=O)O[C@H]1CC[C@]2(C)[C@H]3CC[C@]45C[C@]4(CC[C@H]5[C@@H]4C[C@H]([C@H](O)C(C)(C)O)O[C@H]4OC)[C@]3(C)[C@H](O)C[C@H]2C1(C)C | > 1000 | > 100
2 | CO[C@H]1O[C@@H]([C@H](O)C(C)(C)OC)C[C@H]1[C@@H]1CC[C@]2(C)C3=CC[C@H]4C(C)(C)C(=O)CC[C@]4(C)[C@H]3CC[C@@]12C | 114 (≈ 222 µM) | > 100
3 | CO[C@@H]1O[C@@H]([C@H](O)C(C)(C)OC)C[C@H]1[C@@H]1CC[C@]2(C)C3=CC[C@H]4C(C)(C)C(=O)CC[C@]4(C)[C@H]3CC[C@@]12C | 135 (≈ 261 µM) | > 100
4 | CNc1ccccc1C(=O)O[C@H]1CC[C@]2(C)[C@H]3CC[C@]45C[C@]4(CC[C@H]5[C@@H]4C[C@H]([C@H](O)C(C)(C)O)OC4O)[C@]3(C)[C@H](O)C[C@H]2C1(C)C (stereo partly specified) | > 1000 | > 100
5 | CNc1ccccc1C(=O)O[C@H]1CC[C@]2(C)[C@H]3CC[C@]45C[C@]4(CC[C@H]5[C@@H]4C[C@H]([C@H](O)C(C)(C)O)O[C@@H]4OC)[C@]3(C)[C@H](O)C[C@H]2C1(C)C | > 1000 | > 100
6 | CN(C)c1ccc(C(=C2C=CC(=[N+](C)C)C=C2)c2ccc(N(C)C)cc2)cc1.[Cl-] [GENTIAN VIOLET] | 7.5 | –
